# Reference: US20140154315A1, “Hydrophobic Preparations” (VAXCINE LTD., priority 2011, published 2014)
# Test system: collagen-induced arthritis (CIA) in DBA-1 mice
# Experiment: Oral collagen II preparation in mouse collagen-induced arthritis model, Example 10
# Assay type: in vivo
# Details: 20 ug dose, oral gavage 4 times before CIA induction; FIGS. 1 and 2
# Experimental: • 1. Ten-twelve week old male DBA-1 mice were weighed and divided into 3 groups (n=8/group) as outlined below. All groups were treated orally (by gavage) 4 times (days −10, −7, −5 & −3) prior to induction of collagen-induced arthritis (CIA) by injection of 100 ug collagen in Complete Freunds Adjuvant at the base of the tail. • 2. Arthritis was induced in all animals on day 0, followed by a boost on day 21, and incidence and severity assessed and scored on days 5, 7, 9, 12, 14, 16, 19 and 21 after the boost. Three treatment groups with 8 animals per group were used as outlined below: • (i). CIA+gavage with oil alone • (ii). CIA+gavage with oil containing bovine collagen II (10 μg/dose) • (iii). CIA+gavage with bovine collagen II ([…])
# Clinical scores of arthritis incidence (% of animals in each group affected with arthritis of any severity in any number of joints) and arthritis severity (the severity of disease in each individual mouse) was performed after CIA induction for the duration of the experiment. A standard arthritis scoring system was used as outlined below. Each paw is evaluated for swelling and deformity, scored and a total calculated for each animal.
# Score 0: No arthritis Score 1:1-2 toes affected only Score 2: 3 or >toes and/or swelling of the paw (metacarpus/metatarsus) Score 3: swelling of the carpus/tarsus Score 4: deformity with ankylosis of the carpus/tarsus • 3. […]
substance,measurement,value
collagen alone: bovine collagen II given by gavage without oil formulation,number of animals suffering from arthritis (incidence),reduction in the number of animals suffering from arthritis
